{
  "source": "patent US9927430B2",
  "about": "“Pro-substrates for live cell applications” (PROMEGA CORPORATION, priority 2014, dated 2018)",
  "test": "Furimazine release by hydrolysis at different pH, HPLC at 262 nm",
  "type": "physicochemical",
  "procedure": "The effect of pH on the hydrolysis of the disclosed compounds may be useful for high-throughput screening (HTS). The percent furimazine released in 1 mM of PBI-5455 solutions with different pH values ranging from 5.9 to 7.6 were detected over time using HPLC at 262 nm. […] These compounds can be used to support HTS operation methods to enhance the initial brightness by adjusting pH or adding an appropriate nucleophile.\nAs shown in Example 23, PBI-5455 is stable in slightly acidic buffer for 10 hrs. […] For BRET applications to detect protein-protein and/or ligand-protein interactions, if it is a one-time point reading, the concentration in media could be higher than 100-200 μM.",
  "note": "“Also recorded” adds a separate entry of the source.",
  "data": [
    {"smiles": "CC(=O)NC(CC(=O)O)C(=O)NC(CC(=O)O)C(=O)NC(CC(=O)O)C(=O)N(C)CCN(CCCN1CCOCC1)C(=O)Oc1c(Cc2ccco2)nc2c(Cc3ccccc3)nc(-c3ccccc3)cn12", "note": "(centres unmarked) [PBI-5455, Ac-DDD-MOP-C2-FRZ]", "values": [
      {"measurement": "release of furimazine by hydrolysis", "setting": "1 mM solutions, pH values ranging from 5.9 to 7.6, over time, HPLC at 262 nm (FIG. 14)", "result": "pH dependent; also recorded: The higher the pH, the faster the release"},
      {"measurement": "stable in buffer (time)", "setting": "slightly acidic buffer", "result": 10, "unit": "h"}
    ]}
  ]
}
